Test results: patent US8536198B2, “Piperidine derivatives as modulators of chemokine receptor activity” (Bristol-Myers Squibb Company, priority 2007, dated 2013)

biological target: CCR1 (Homo sapiens (Human), UniProt P32246); assay: CCR1 Ligand Binding Scintillation Proximity Assay (SPA); settings: [125I]-MIP-1α competition binding on THP-1 monocytic leukemia cells, 12 h at room temperature
Protocol: CCR1 Ligand Binding Scintillation Proximity Assay (SPA)
For radioligand competition studies, a final concentration of 1×10^5 THP-1 monocytic leukemia cells are combined with 100 μg of LS WGA PS beads (Amersham, Cat.#: RPNQ 0260) in 40 μl of assay buffer (RPMI 1640 without phenol red, 50 mM HEPES, 5 mM MgCl2, 1 mM CaCl2, 0.1% BSA). The THP-1 cell/bead mixture is added to each well of a 384-well assay plate (PerkinElmer, Cat. #:6007899) containing test compound in 3-fold serial dilution, with final concentrations ranging from 8 μM to […]. A final concentration of 0.1 nM [^125I]-MIP-1α (PerkinElmer, Cat. # NEX298) in 20 μl assay buffer is added to the reaction. Sealed assay plates are incubated at room temperature for 12 h then analyzed by LEADseeker™.
The competition data of the test compound over a range of concentrations is plotted as percentage inhibition of radioligand specific bound in the absence of test compound (percent of total signal). After correcting for non-specific binding, IC50 values are determined. The IC50 value is defined as the concentration of test compound needed to reduce [^125I]-MIP-1α specific binding by 50% and is calculated using the four parameter logistic equation to fit the normalized data. The Ki values are determined by application of the Cheng-Prusoff equation to the IC50 values, where Ki=IC50/(1+ ligand concentration/Kd) The Kd of [^125I]-MIP-1α in THP-1 cells is 0.1 nM. Each experiment is run in duplicate.

Sequence of CCR1 (P32246 whole entry): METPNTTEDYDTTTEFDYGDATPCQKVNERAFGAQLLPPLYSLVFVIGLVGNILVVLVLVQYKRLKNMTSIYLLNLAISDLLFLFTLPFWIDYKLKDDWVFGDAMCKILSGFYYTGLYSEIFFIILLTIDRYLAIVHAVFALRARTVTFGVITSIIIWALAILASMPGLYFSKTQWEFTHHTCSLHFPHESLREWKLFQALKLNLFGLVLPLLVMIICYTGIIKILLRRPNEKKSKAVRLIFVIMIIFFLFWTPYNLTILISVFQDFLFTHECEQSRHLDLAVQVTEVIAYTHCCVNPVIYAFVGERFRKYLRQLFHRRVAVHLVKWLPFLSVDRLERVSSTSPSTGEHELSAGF

| Structure (SMILES) | IC50 [nM] |
| --- | --- |
| CC1(C)CN(C(=O)[C@H]2CCCC[C@H]2NC(=O)c2cccc(C(=O)O)c2)CC[C@]1(O)c1ccc(C#N)cc1 [Example 100, 3-((1R,2S)-2-((S)-4-(4-Cyanophenyl)-4-hydroxy-3,3-dimethylpiperidine-1-carbonyl)cyclohexylcarbamoyl)benzoic acid] | 11.3 |
| CC1(C)CN(C(=O)[C@H]2CCC[C@H]2NC(=O)[C@@H]2CC[C@H](O)C2)CC[C@]1(O)c1ccc(Cl)cc1 [Example 83] | 14 |
| CC1(C)CN(C(=O)[C@H]2CCCC[C@H]2NC(=O)CO)CC[C@]1(O)c1ccc(Cl)cc1 [Example 61] | 768 |
| C[C@H](NC(=O)N[C@@H]1CCCC[C@@H]1C(=O)N1CC[C@](O)(c2ccc(Cl)cc2)C(C)(C)C1)C(C)(C)O [Example 106] | 0.7 |
| CC1(C)CN(C(=O)[C@H]2CCC[C@H]2NC(=O)C2CCCC2)CC[C@]1(O)c1ccc(Cl)cc1 [Example 86] | 1.3 |
| COC(=O)N[C@@H]1CCCC[C@@H]1C(=O)N1CC[C@](O)(c2ccc(Cl)cc2)C(C)(C)C1 [Example 41] | 997 |
| CC1(C)CN(C(=O)[C@H]2CCCC[C@H]2NC(=O)[C@H](O)c2ccccc2)CC[C@]1(O)c1ccc(Cl)cc1 [Example 67] | 858 |
| CC1(C)CN(C(=O)[C@H]2CC3(CC[C@H]2NC(=O)c2ccccc2)OCCO3)CC[C@]1(O)c1ccc(Cl)cc1 [Example 10, N-((7S,8R)-7-((S)-4-(4-Chlorophenyl)-4-hydroxy-3,3-dimethylpiperidine-1-carbonyl)-1,4-dioxaspiro[4.5]decan-8-yl)benzamide] | 1060 |
| C[C@@H](O)CNC(=O)N[C@@H]1CCCC[C@@H]1C(=O)N1CC[C@](O)(c2ccc(Cl)cc2)C(C)(C)C1 [Example 76] | 14.6 |
| CC1(C)CN(C(=O)[C@H]2CCC[C@H]2NC(=O)c2cccc(C(N)=O)c2)CC[C@]1(O)c1ccc(Cl)cc1 [Example 89] | 1.8 |
| CC1(C)CN(C(=O)[C@H]2CCCC[C@H]2NC(=O)Nc2ccccc2)CC[C@]1(O)c1ccc(Cl)cc1 [Example 35] | 18.5 |

More lines, now with the values ahead:

| IC50 [nM] | Structure (SMILES) |
| --- | --- |
| 17.2 | CC1(C)CN(C(=O)[C@H]2CC(=O)CC[C@H]2NC(=O)c2ccccc2)CC[C@]1(O)c1ccc(Cl)cc1 [Example 11, N-((1R,2S)-2-((S)-4-(4-Chlorophenyl)-4-hydroxy-3,3-dimethylpiperidine-1-carbonyl)-4-oxocyclohexyl)benzamide] |
| 2.1 | CC1(C)CN(C(=O)[C@H]2CCCC[C@H]2NC(=O)c2ccccc2)CC[C@]1(O)c1ccc(Cl)cc1 [Example 2, N-((1R,2S)-2-((S)-4-(4-Chlorophenyl)-4-hydroxy-3,3-dimethylpiperidine-1-carbonyl)cyclohexyl)benzamide] |
| 1 | CC1(C)CN(C(=O)[C@H]2CCC[C@H]2NC(=O)c2cccc(S(N)(=O)=O)c2)CC[C@]1(O)c1ccc(Cl)cc1 [Example 80] |
| 1.5 | CC1(C)CN(C(=O)[C@H]2CCC[C@H]2NC(=O)[C@H]2CC[C@@H](O)C2)CC[C@]1(O)c1ccc(Cl)cc1 [Example 84] |
| 12.1 | CC(C)(C)OC(=O)N[C@@H]1CCC[C@@H]1C(=O)N1CC[C@](O)(c2ccc(Cl)cc2)C(C)(C)C1 [Example 7, tert-Butyl (1R,2S)-2-((S)-4-(4-chlorophenyl)-4-hydroxy-3,3-dimethylpiperidine-1-carbonyl)cyclopentylcarbamate] |
| 15.7 | CC1(C)CN(C(=O)[C@H]2CCCC[C@H]2NC(=O)CCc2ccccc2)CC[C@]1(O)c1ccc(Cl)cc1 [Example 60] |
| 818 | CC1(C)CN(C(=O)[C@H]2CCCC[C@@]2(C)NC(=O)c2ccccc2)CC[C@]1(O)c1ccc(Cl)cc1 [Example 104] |
| 581 | CC1(C)CN(C(=O)[C@H]2CCCC[C@H]2NC(=O)[C@@H](O)c2ccccc2)CC[C@]1(O)c1ccc(Cl)cc1 [Example 68] |
| 932 | CC1(C)CN(C(=O)[C@H]2CCCC[C@H]2NC(=O)CCN2CCCCC2)CC[C@]1(O)c1ccc(Cl)cc1 [Example 58] |
| 11.5 | CC1(C)CN(C(=O)[C@H]2CCC[C@H]2NC(=O)Nc2ccccc2)CC[C@]1(O)c1ccc(Cl)cc1 [Example 9, 1-((1R,2S)-2-((S)-4-(4-Chlorophenyl)-4-hydroxy-3,3-dimethylpiperidine-1-carbonyl)cyclopentyl)-3-phenylurea] |
| 1.6 | CC1(C)CN(C(=O)[C@H]2CCC[C@H]2NC(=O)c2cccc(C(=O)O)c2)CC[C@]1(O)c1ccc(Cl)cc1 [Example 85] |
| 18.7 | CC1(C)CN(C(=O)[C@H]2CCCC[C@H]2NC(=O)c2cncnc2)CC[C@]1(O)c1ccc(Cl)cc1 [Example 57] |
